Results taken from patent publication US20220339180A1, “Methods And Compositions For Treating Viral Diseases Using Combination Of Drugs” (priority 2021, published 2022).
Like-named read-outs stand apart in the source and are kept apart here.

What was measured:
CoV-2 RdRp = CoV-2 RdRp (Severe acute respiratory syndrome coronavirus 2, UniProt P0DTD1); assay type: biochemical, SARS-CoV-2
human Akt2 [1] = target: T1, human Akt2 (Homo sapiens, UniProt P31751); conditions: read-out: Km for ATP; human Akt2, previously reported studies; cited from earlier work
human Akt2 [2] = target: T1, human Akt2; assay: ADP-Glo Kinase assay, human Akt2; assay type: biochemical; conditions: 500 nM compound, excess of ATP
SARS-CoV-2 = assay type: cell-based
[3] = substrate: Nc1ncnc2c1ncn2[C@@H]1O[C@H](COP(=O)(O)OP(=O)(O)OP(=O)(O)O)[C@@H](O)[C@H]1O; assay: purified protein, by the assay type; conditions: other: human Akt2

CC(Cc1ccc(O)c(O)c1)C(C)Cc1ccc(O)c(O)c1 (stereo not drawn) [compound 4534, Nordihydroguaiaretic acid]
inhibition of kinase like activity of CoV-2 RdRp (CoV-2 RdRp): failed to inhibit

Nc1ncnc2c1ncn2[C@@H]1O[C@H](COP(=O)(O)OP(=O)(O)OP(=O)(O)O)[C@@H](O)[C@H]1O [ATP, Adenosine triphosphate]
Km (human Akt2 [1]): ~350 µM

CNC(=O)c1cc(Oc2ccc(NC(=O)Nc3ccc(Cl)c(C(F)(F)F)c3)cc2)ccn1 [Sorafenib]
inhibition of kinase activity of human Akt2 (human Akt2 [2]): significantly inhibited | cell survival of SARS-CoV-2 infected epithelial cells (SARS-CoV-2; 1, 5, 25 and 50 μM, concentrations similar to Remdesivir): improves cell survival | reduction in the infection (SARS-CoV-2; 1-50 μM, Remdesivir as control): significant reduction in the infection | clearing of virus from infected cells, single agent (SARS-CoV-2; Sorafenib 4 μM or remdesivir 1 μM alone): have effect to clear the virus | viral load (SARS-CoV-2; ex-vivo SARS-CoV-2 infection in cell line): significantly reduces viral load

NC(=O)c1ncn([C@@H]2O[C@H](COP(=O)(O)OP(=O)(O)OP(=O)(O)O)[C@@H](O)[C@H]2O)n1 [compound 122108, Ribavirin 5′-triphosphate]
inhibition of kinase like activity of CoV-2 RdRp (CoV-2 RdRp; 500 nM compound, excess of ATP): very little effects | inhibition of kinase like activity of CoV-2 RdRp (CoV-2 RdRp; 1000 nM compound): conspicuous inhibitions

CN(C)S(=O)(=O)c1ccc2c(c1)/C(=C/c1cc3c([nH]1)CCCC3)C(=O)N2 [SU6656]
inhibition of kinase activity of human Akt2 (human Akt2 [2]): significantly inhibited | inhibition of kinase like activity of CoV-2 RdRp (CoV-2 RdRp): significantly abrogated

B1: human Akt2 (Homo sapiens) (protein)
chain: MNEVSVIKEGWLHKRGEYIKTWRPRYFLLKSDGSFIGYKERPEAPDQTLPPLNNFSVAECQLMKTERPRPNTFVIRCLQWTTVIERTFHVDSPDEREEWMRAIQMVANSLKQRAPGEDPMDYKCGSPSDSSTTEEMEVAVSKARAKVTMNDFDYLKLLGKGTFGKVILVREKATGRYYAMKILRKEVIIAKDEVAHTVTESRVLQNTRHPFLTALKYAFQTHDRLCFVMEYANGGELFFHLSRERVFTEERARFYGAEIVSALEYLHSRDVVYRDIKLENLMLDKDGHIKITDFGLCKEGISDGATMKTFCGTPEYLAPEVLEDNDYGRAVDWWGLGVVMYEMMCGRLPFYNQDHERLFELILMEEIRFPRTLSPEAKSLLAGLLKKDPKQRLGGGPSDAKEVMEHRFFLSINWQDVVQKKLLPPFKPQVTSEVDTRYFDDEFTAQSITITPPDRYDSLGLLELDQRTHFPQFSYSASIRE
Km [3]: 300 µM
